Test results taken from US12377052B2, “Dual-responsive nanoparticles for enhanced antibacterial efficacy” (priority 2020, dated 2025).
In brackets after ≈: the same amount, converted by molar mass. Like-named read-outs stand apart in the source and are kept apart here.

Key:
MRSA (ATCC 33591) = test: MIC, broth microdilution; type: cell-based, S. aureus
Protocol: (§1) Bacterial strains. S. aureus Newman was kindly provided by Prof. Douglas Weibel; E. coli ATCC25922, S. aureus ATCC 33591 and P. aeruginosa ATCC 27853 were purchased from ATCC. E. coli DH5a was purchased from Thermo Fisher. These bacteria were grown in Mueller Hinton Broth (MHB) media (Criterion, Santa Maria, CA, USA). M. smegmatis mc^2155 strain was kindly provided by Prof. Adel M. Talaat's laboratory, and it was grown in Middlebrook 7H9 broth (HiMedia, West Chester, PA, USA).
(§2) Minimal inhibitory concentration (MIC) measurements. The MIC of the different treatments on various bacteria strains was determined using the Clinical Laboratory Standards Institute broth microdilution method^8. Briefly, broth media (100 μL) containing two-fold serial dilutions of each compound were placed into a 96-well tissue culture plate. Each bacterial strain was taken from an exponentially growing culture and diluted to 5×10^6 CFU/mL. Ten microliters of such microbial suspension was inoculated in each well of the plate, resulting in a final bacteria concentration of approximately 5×10^5 CFU/mL. The bacteria were cultured at 37° C. for one day and their growth was observed by reading the optical density (OD) at 600 nm. The MIC was determined as the treatment concentration at which no microbial growth was observed. Broth containing microbial cells alone was used as a positive control and broth without bacteria inoculation was used as a negative control. Each test was carried out in 3 replicates.

[1] = system: Raw 264.7 murine macrophage cells; test: Cell viability test (MTT assay); type: cell-based; details: Mus musculus, RAW264.7, 24 h, one day treatment
Protocol: Cell viability test. Cytotoxicity of different NP components was tested using MTT assays. Raw 264.7 murine macrophage cells were seeded onto a 96-well plate (1×10^4 cells/well) and cultured overnight. The cells were then treated with free antibiotic, PBAE-G polymer or NP with serial dilutions for one day and their viability was measured by a standard MTT assay. Data were collected by monitoring the difference between the absorbance at 560 nm and 650 nm using a GloMax-Multi Microplate Multimode Reader (Promega, WI, USA).

E. coli ATCC 25922 = test: Evaluation of antibiotic resistance development (serial passaging); type: cell-based; details: sub-lethal dose (0.5 MIC), after 20 passages
Protocol: Evaluation of antibiotic resistance development. […] The OD 600 value in each tube was examined to determine the MIC, and the bacteria cultured in the tube containing rifampicin at a ½ MIC was used for passage. The MIC for each passage was recorded and compared to that of the first passage to determine the drug resistance enhancement.

[2] = system: P. aeruginosa (ATCC 27853); test: MIC, broth microdilution; type: cell-based
Protocol: as §1, §2

E. coli (DH5 alpha) = test: MIC, broth microdilution; type: cell-based; details: Escherichia coli; no pH/H2O2 stimulus stated
Protocol: as §1, §2

M. smegmatis (MC^2 155) [3] = test: MIC, broth microdilution; type: cell-based; details: Mycolicibacterium smegmatis, MC^2155; no pH/H2O2 stimulus stated
Protocol: as §1, §2

E. coli (ATCC 25922) = test: MIC, broth microdilution; type: cell-based; details: Escherichia coli, ATCC25922; no pH/H2O2 stimulus stated
Protocol: as §1, §2

S. aureus (Newman) = test: MIC, broth microdilution; type: cell-based; details: Staphylococcus aureus, no pH/H2O2 stimulus stated
Protocol: as §1, §2

MRSA = test: Checkerboard assay, FIC index; type: cell-based, S. aureus; details: antibiotic with the PBAE-G polymer
Protocol: (§3) Fractional inhibitory concentration (FIC) measurement. The synergy between the cationic polymer and antibiotic was assessed by checkerboard assays. The two antibacterial components were mixed in a 96-well plate with serial two-dimensional dilutions. Bacteria were inoculated in each well of the plate and their growth, reflected by the OD600 value, was monitored. The synergy effect was evaluated by calculating the FIC index according to the formula below:
(§4) [formula] MICA^Comb and MICB^Comb indicate the MICS of the two components in combination. The interactions between the two components are defined according to standard criteria of considering FIC≤0.5 as synergistic; 0.5<FIC≤1 as additive; 1<FIC≤4 as indifference; and FIC>4 as antagonism.

[4] = system: P. aeruginosa (ATCC 27853); test: Checkerboard assay, FIC index; type: cell-based; details: for FIC index: antibiotic with the PBAE-G polymer
Protocol: as §3, §4

M. smegmatis (MC^2 155) [5] = test: Checkerboard assay, FIC index; type: cell-based; details: low pH and high ROS condition
Protocol: as §3, §4

MRSA biofilm = test: Biofilm inhibition assay (crystal violet); type: cell-based, S. aureus; details: 32 μg/mL
Protocol: Biofilm inhibition assays. Exponentially growing bacteria were inoculated into 96 well plates (1×10^4 cell/well) containing MHB broth with 2% (w/v) glucose, and incubated under stationary conditions at 37° C. for one day. After biofilm formation, the medium was discarded, and the plates were washed with PBS to remove the planktonic bacteria. Fresh MHB broth containing serially diluted free rifampicin or NP was added to the plates and incubated at 37° C. for another 24 h. The media in each well was then removed, and the plates were washed carefully with PBS one time. The biofilm in each well was fixed with 95% ethanol for 15 min and stained with 0.1% crystal violet for 15 min. After the biofilm was washed with Milli-Q water for three times, 33% v/v acetic acid (100 μL/well) was added to the plate to solubilize the crystal violet staining. OD 560 in each well was read to assess the biofilm formation.

[6] = Table 1, antibiotic alone, in µg/mL (unit assumed)

Molecule	MIC (MRSA (ATCC 33591); Staphylococcus aureus, no pH/H2O2 stimulus stated, read-out: MIC MRSA (ATCC 33591))	MIC (MRSA (ATCC 33591); Table 1, antibiotic alone)	IC50 [1]	MIC increase compared to initial (E. coli ATCC 25922)	MIC ([2]; Pseudomonas aeruginosa, ATCC27853, no pH/H2O2 stimulus stated, read-out: MIC P. aeruginosa (ATCC 27853))	MIC [2, 6]	MIC (E. coli (DH5 alpha))	MIC (M. smegmatis (MC^2 155) [3])	MIC (E. coli (ATCC 25922))	MIC (S. aureus (Newman))	FIC index (MRSA)	FIC index [4]	FIC index between rifampicin and the PBAE-G-B polymer ([4]; low pH and high ROS condition)	FIC index between rifampicin and the PBAE-G-B polymer (M. smegmatis (MC^2 155) [5])	biofilm remained (MRSA biofilm)
CO[C@H]1/C=C/O[C@@]2(C)Oc3c(C)c(O)c4c(O)c(c(/C=N/N5CCN(C)CC5)c(O)c4c3C2=O)NC(=O)/C(C)=C\C=C\[C@H](C)[C@H](O)[C@@H](C)[C@@H](O)[C@@H](C)[C@H](OC(C)=O)[C@@H]1C [Rifampicin]	0.016 µg/mL (≈ 0.0194 µM)	0.016 µg/mL (≈ 0.0194 µM)	210 µg/mL (≈ 255 µM)	40 fold	32 µg/mL (≈ 38.9 µM)	32	16 µg/mL (≈ 19.4 µM)	128 µg/mL (≈ 156 µM)	16 µg/mL (≈ 19.4 µM)	0.016 µg/mL (≈ 0.0194 µM)	1	0.25	0.188	0.25	More than 80%
CN[C@H](CC(C)C)C(=O)N[C@H]1C(=O)N[C@@H](CC(N)=O)C(=O)N[C@H]2C(=O)N[C@H]3C(=O)N[C@H](C(=O)N[C@H](C(=O)O)c4cc(O)cc(O)c4-c4cc3ccc4O)[C@H](O)c3ccc(c(Cl)c3)Oc3cc2cc(c3O[C@@H]2O[C@H](CO)[C@@H](O)[C@H](O)[C@H]2O[C@H]2C[C@](C)(N)[C@H](O)[C@H](C)O2)Oc2ccc(cc2Cl)[C@H]1O [Vancomycin]	–	1 µg/mL (≈ 0.69 µM)	–	–	–	1024	–	–	–	–	1	2	–	–	–
CCC[C@@H]1C[C@@H](C(=O)N[C@@H]([C@H]2O[C@H](SC)[C@H](O)[C@@H](O)[C@H]2O)[C@H](C)Cl)N(C)C1 [Clindamycin]	–	32 µg/mL (≈ 75.3 µM)	–	–	–	>1024	–	–	–	–	0.562	<0.25	–	–	–
[H]/N=C(/N)N[C@H]1[C@H](O)[C@@H](O)[C@H](O[C@@H]2O[C@@H](C)[C@](O)(C=O)[C@H]2O[C@@H]2O[C@@H](CO)[C@H](O)[C@@H](O)[C@@H]2NC)[C@@H](N/C(N)=N\[H])[C@@H]1O [Streptomycin]	–	16 µg/mL (≈ 27.5 µM)	–	–	–	16	–	–	–	–	0.266	0.25	–	–	–
CC1(C)S[C@@H]2[C@H](NC(=O)[C@H](N)c3ccc(O)cc3)C(=O)N2[C@H]1C(=O)O [Amoxicillin]	–	128 µg/mL (≈ 350 µM)	–	–	–	1024	–	–	–	–	0.75	2	–	–	–
Gentamicin	–	1 µg/mL	–	–	–	1	–	–	–	–	0.5	0.375	–	–	–
O=C(O)c1cn(C2CC2)c2cc(N3CCNCC3)c(F)cc2c1=O [Ciprofloxacin]	–	0.5 µg/mL (≈ 1.51 µM)	–	–	–	0.25	–	–	–	–	2	1	–	–	–
